Assay [1] relates to human lung cancer A549. Put plainly: Lung cancer model, Experiment A: A549 xenograft. The note with it: A549, Cby.Cg-foxn1(nu)/J mice; 20 mg/kg i.v. 6 times every second day; 35 day. In kind it is in vivo. As for the experimental part: (§1) Tumor size was measured using electronic calliper, tumor volume was calculated using the formula: (a^2×b)/2, where a=shorter diagonal of the tumor (mm) and b=longer diagonal of the tumor (mm). Inhibition of tumor growth was calculated using the formula:
(§2) TGI[%](Tumor growth inhibition)=(WT/WC)×100−100%
(§3) wherein WT is the average tumor volume in the treatment group, and WC is the average tumor volume in the control group.
On day 0 Cby.Cg-foxn1(nu)/J mice were grafted subcutaneously (s.c.) in the right side with 5×10^6 of A549 cells suspended in 0.1 ml of the mixture HBSS:Matrigel 4:1 using syringe with a needle 0.5×25 mm (Bogmark). On the 19 day of the experiment mice were randomized to obtain the average size of tumors in the group of ˜75 mm3 and assigned to treatment groups. The treatment groups were administered with the preparations of fusion protein of the invention of Ex. 11^a (15 mg/kg), and rhTRAIL114-281 (20 mg/kg) as a comparison and water for injections as a control. The preparations were administered intravenously (i.v) 6 times once daily every second day. On the 35 day of the experiment mice were sacrificed by disruption of the spinal cord.

Assay [2] deals with human lung cancer A549. Nature of the assay: Lung cancer model, Experiment B: A549 xenograft. In kind it is in vivo, Crl:SHO-PrkdcscidHrhr mice. The note with it: A549, Crl:SHO mice; 20 mg/kg i.v. 6 times every second day; 34 day. How it is done:
as §1, §2, §3
Experiment B. On day 0 Crl:SHO-Prkdc^scidHr^h mice were grafted subcutaneously (s.c.) in the right side with 7×10^6 of A549 cells suspended in 0.1 ml of the mixture HBSS:Matrigel 3:1 using syringe with a needle 0.5×25 mm (Bogmark). On the 17 day of the experiment mice were randomized to obtain the average size of tumors in the group of ˜100-120 mm^3 and assigned to treatment groups. The treatment groups were administered with the preparations of fusion protein of the invention of Ex. 11^a (40 mg/kg), and rhTRAIL114-281 (20 mg/kg) as a comparison against formulation buffer (19 mM NaH2PO4, 81 mM Na2HPO4, 50 mM NaCl, 5 mM glutathione, 0.1 mM ZnCl2, 10% glycerol, pH 7.4) as a control. The preparations were administered intravenously (i.v) 6 times once daily every second day. On the 34 day of the experiment mice were sacrificed by disruption of the spinal cord.

Assay [3] has as its system human pancreas cancer PANC-1. Nature of the assay: Pancreas cancer model, Experiment A: PANC-1 xenograft. In kind it is in vivo, Crl:SHO-PrkdcscidHrhr mice. The note with it: 20 mg/kg i.v. 6 times every second day, 42 day. How it is done:
as §1, §2, §3
On day 0 Crl:SHO-Prkdc^scidHr^hr mice were grafted subcutaneously (s.c.) in the right side with 5×10^6 of PANC-1 cells suspended in 0.1 ml of the mixture HBSS:Matrigel 3:1 using syringe with a needle 0.5×25 mm (Bogmark). On the 31 day of the experiment mice were randomized to obtain the average size of tumors in the group of ˜110 mm^3 and assigned to treatment groups. The treatment groups were administered with the preparations of fusion protein of the invention of Ex. 11^a (40 mg/kg), and rhTRAIL114-281 (20 mg/kg) as a comparison against formulation buffer (19 mM NaH2PO4, 81 mM Na2HPO4, 50 mM NaCl, 5 mM glutathione, 0.1 mM ZnCl2, 10% glycerol, pH 7.4) as a control. The preparations were administered intravenously (i.v) 6 times once daily every second day. On the 42 day of the experiment mice were sacrificed by disruption of the spinal cord.

Assay [4] deals with pancreatic carcinoma MIA PaCa-2. Put plainly: Pancreas cancer model, Experiment B: MIA PaCa-2 xenograft. The format is in vivo, Crl:SHO-PrkdcscidHrhr mice. The conditions noted are these: rhTRAIL 50 mg/kg i.v. six times every second day, 61th day. As for the experimental part:
as §1, §2, §3
On day 0 Crl:SHO-Prkdc^scidHr^hr mice were grafted subcutaneously (s.c.) in the right flank region with 5×10^6 of MIA PaCa-2 cells suspended in 0.1 ml of 3:1 mixture HBSS buffer:Matrigel using syringe with a 0.5×25 mm needle (Bogmark). When tumors reached the size of 60-398 mm^3 (day 20), mice were randomized to obtain the average size of tumors in the group of ˜170 mm^3 and assigned to treatment groups. The treatment groups were administered with the preparations of fusion protein of the invention of Ex. 16^b (50 mg/kg) and rhTRAIL114-281 (50 mg/kg) as a comparison and reference compound gemcytabine (Gemzar, Eli Lilly) (50 mg/kg). The preparations were administered intravenously (i.v.) six times every second day, gemcytabine was applied intraperitoneally (i.p.) in the same schedule. The control group received formulation buffer.
When a therapeutic group reached the average tumor size of ˜1000 mm^3, mice were sacrificed by the cervical dislocation.

For assay [5], the system named is human colon cancer HCT116. Put plainly: Colon cancer model, Experiment A1: HCT116 xenograft. The conditions noted are these: 65 mg/kg i.v. six times every second day, 24th day. In kind it is in vivo, Crl:SHO-PrkdcscidHrhr mice. As for the experimental part:
as §1, §2, §3
On day 0 Crl:SHO-Prkdc^scidHr^hr mice were grafted subcutaneously (s.c.) in the right flank region with 5×10^6 of HCT116 cells suspended in 0.1 ml of the 3:1 mixture HBSS buffer:Matrigel using syringe with a 0.5×25 mm needle (Bogmark). When tumors reached the size of 71-432 mm^3 (day 13), mice were randomized to obtain the average size of tumors in the group of ˜180 mm^3 and assigned to treatment groups. The treatment groups were administered with the preparations of fusion protein of the invention of Ex. 16^b (90 mg/kg) and rhTRAIL114-281 (65 mg/kg) as a comparison. The preparations were administered intravenously (i.v.) six times every second day. The control group received formulation buffer.
When an experimental group reached the average tumor size of −1000 mm^3, mice were sacrificed by cervical dislocation.

Assay [6] deals with human colon cancer Colo205. Put plainly: Colon cancer model, Experiment C: Colo205 xenograft. The format is in vivo, Crl:SHO-PrkdcscidHrhr mice. The note with it: rhTRAIL 30 mg/kg i.v. 6 times every second day, 33 day. How it is done: as §1, §2, §3
On day 0 Crl:SHO-Prkdc^scidHr^hr mice were grafted subcutaneously (s.c.) in the right side with 5×10^6 of Colo205 cells suspended in 0.1 ml of HBSS buffer using syringe with a needle 0.5×25 mm (Bogmark). On the 13 day of the experiment mice were randomized to obtain the average size of tumors in the group of ˜115 mm^3 and assigned to treatment groups.
The treatment groups were administered with the preparations of fusion protein of the invention of Ex. 16^a (30 mg/kg), and rhTRAIL114-281 (30 mg/kg) as a comparison against formulation buffer (19 mM NaH2PO4, 81 mM Na2HPO4, 50 mM NaCl, 5 mM glutathione, 0.1 mM ZnCl2, 10% glycerol, pH 7.4) as a control. The preparations were administered intravenously (i.v) 6 times once daily every second day. On the 33 day of the experiment mice were sacrificed by disruption of spinal cord.

Consider “rhTRAIL114-281: recombinant human soluble TRAIL, amino acids 114-281 of hTRAIL, used as comparative reference”, for which the “TGI (tumor growth inhibition) relative to the control” value was 0% in assay [1]; 21.8% in assay [2]; 26% in assay [3]; 68% in assay [4]; 37.9% in assay [5]; 18.8% in assay [6].
